Assay results as given in patent US20120238532A1, “TREATMENT OF HUMAN OSTEOSARCOMA” (CEDARS-SINAI MEDICAL CENTER, priority 2009, published 2012).

Key:
MG-63 cells [1] = test: Cell cycle analysis (PI, FACS), MG-63; type: cell-based, human; conditions: alone at ED50 (50 nM)
Protocol: (§1) Cells were harvested and fixed with 70% ethanol at regular time intervals. Fixed cells were stained with propidium iodide (PI) for flow cytometry analysis using BD FACScan (BD Biosciences, San Jose, Calif.). Distribution of cell cycle was analyzed by ModFit LT V2.0 software (Verity Software House, Topsham, Me.). […] After 24, 48, and 72 hours of exposure, cells were harvested and stained with PI and fluorescein isothiocyanate (FITC) using Annexin V-FITC apoptosis detection kit (BD Biosciences) according to the manufacturer's protocol. Cells were subjected to flow cytometry analysis within one hour of staining.

human OS cells = conditions: LD-MTX alone; xenograft studies using murine models (refs 24, 37); cited from earlier work
[2] = Body weight and side-effects during xenograft treatment; type: in vivo, mice; conditions: LD-MTX 150 mg/kg
Protocol: (§2) All animal experiments strictly followed the guidelines of Cedars-Sinai Medical Center and the National Institute of Health (NIH). Female nu/nu athymic nude mice (5-6 weeks old; average weight 21 g; specific pathogen-free) from Harlan Laboratories (Indianapolis, Ind.) were maintained in pathogen-free condition with sterilized chow and water. 5×10^6 cells of MG-63 cells were mixed with 200 μl of Matrigel solution (BD Biosciences) per injection, and the mixture was injected subcutaneously on the upper flanks of nude mice. After 24 hours, tumor size was measured, and any outliers were ruled out by one-way analysis of variance (ANOVA) test. […] The dose of LD-MTX was the murine equivalent of the human dose of LD-MTX. The conversion was made using dose translation formula by Reagan-Shaw et al., (15). […] Body weights were monitored every 2 days. Tumor size was measured every 2 days, and the tumor volume was calculated using the following formula: A (length)×B (width)×C (height)×0.5236 (16). The experiment was stopped at day 35, and all mice were sacrificed. The presence of metastatic spread was examined macroscopically at the time of autopsy followed by histological examination. At least two tumors from each group were snap-frozen in liquid nitrogen for Western blotting.

MG-63 cells [3] = test: Annexin V-FITC apoptosis assay, MG-63; type: cell-based, human; conditions: at ED50, 72 hours of exposure
Protocol: as §1

[4] = system: clonogenic hematopoietic cells; test: Colony-forming cell (CFC) assays of bone marrow; conditions: LD-MTX 150 mg/kg; day 35; 2 × 10^4 cells/well
Protocol: (§4) Whole blood samples were obtained by submandibular bleeding and serum samples were harvested with serum separator tubes (BD Biosciences). Blood count and serum chemistry results were obtained by the Hemagen Analyst Benchtop Chemistry System (Hemagen Diagnostics, Inc. Columbia, Md.). Colony-forming cell (CFC) assays were performed as previously described (18).

Blood counts in mice = type: in vivo; conditions: LD-MTX 150 mg/kg; day 35
Protocol: as §4

Organ weight in mice = type: in vivo; conditions: LD-MTX 150 mg/kg; day 35
Source text: (§3) At autopsy, tumors and internal organs including liver, spleen, kidneys were excised, weighed, and then fixed in 10% PBS-buffered formalin and maintained in 70% ethanol. For IHC, fixed tumors and organs were embedded in paraplast (Oxford Labware, St. Louis, Mo.), cut in 6 μm thick sections, and stained with hematoxylin and eosin (HE) for histopathological examination.

Serum chemistry in mice = type: in vivo; conditions: LD-MTX 150 mg/kg; day 35
Protocol: as §4

MG-63 cells [5] = test: MTT assay, MG-63 (dose-response, pulse-exposure, combination); type: cell-based, human; conditions: Homo sapiens, MTT, 48 hours of exposure, read-out: ED50 (the source's name)
Protocol: 7 human OS cell lines (U2OS, G292, MG-63, HT-161, HOS, SAOS-2, and SJSA) were used in the study. Each cell line except HT-161 was obtained from the American Type Culture Collection (ATCC, Rockville, Md.). HT-161 was obtained from Dr. Emil Bogenmann (13). All cell lines were tested and authenticated prior to use according to cell line verification test recommendations by ATCC. OS cell lines were maintained in DMEM medium (Mediatech Inc., Herndon, Va.) supplemented with 10% fetal bovine serum (FBS; Atlanta Biological, Lawrenceville, Ga.) in a humidified incubator at 37° C. supplied with 5% CO2. Only the cells in exponential growth phase were used in the study.
Cell growth and survival were measured by 3-(4,5-dimethylthiazol-2-yl)-2,5-diphenyltetrazolium bromide (MTT) assay. […] After 48 hours of incubation, 10 μl of 5 mg/ml MTT solution (Sigma-Aldrich, St. Louis, Mo.) was added to each well and incubated further for 2 hours. […] For pulse-exposure experiments, MG-63 and SAOS-2 cells were seeded in 96-well plates and exposed to CuB at their ED50. After 2, 9, and 20 hours of exposure, cells were washed twice with PBS and incubated further in CuB-free media. Cell growth was checked by MTT assay at 24, 48, and 72 hours.
Calcusyn 2.0 (Biosoft, Ferguson, Mo.) was used for CI analysis.

MG-63 xenografts [6] = test: Immunohistochemistry of xenografts (HE, Ki-67, TUNEL); type: in vivo, mice; conditions: LD-MTX 150 mg/kg; day 35
Source text: as §3
For Ki-67 proliferation assay, tumor sections were deparaffinized with xylene and rehydrated through graded ethanol. Endogenous peroxidase activity was blocked with 3% hydrogen peroxide in methanol. […] After incubation, tumor sections were stained with diaminobenzidine (DAB) and counterstained with hematoxylin. Terminal deoxynucleotidyl transferase dUTP nick end labeling (TUNEL) apoptosis assay was performed using ApopTaq Plus Peroxidase In Situ Apoptosis Kit (Millipore) according to the manufacturer's protocol. Percent positive cells in representative microscopic fields were counted using ImageJ (17).

MG-63 xenografts [7] = test: Growth of MG-63 xenografts in athymic nude mice; type: in vivo; conditions: LD-MTX 150 mg/kg, single agent
Protocol: as §2, with “The” for “The dose of LD-MTX was the murine equivalent of the human dose of LD-MTX. The”

## CN(Cc1cnc2nc(N)nc(N)c2n1)c1ccc(C(=O)N[C@@H](CCC(=O)O)C(=O)O)cc1 [MTX, methotrexate, reference compound]
MG-63 cells [1]
  earliest sign of S-phase arrest: 48 h
Human OS cells
  growth inhibition of human OS cells: < 20%
[2]
  mice with sluggish movements, occasional diarrhea, and a patchy skin rash: 60%
[2]; some mice, 48 hours after MTX injection
  body weight loss: 10%
MG-63 cells [3]
  apoptotic cells: 30%
[4]
  BFU-E, number of colonies: 7.1 ± 0.8
  CFU-GEMM, number of colonies: 3.4 ± 0.5
  CFU-GM, number of colonies: 64.6 ± 3.6
Blood counts in mice
  Basophils: 0.00 ± 0.00 K/μl
  Eosinophils: 0.00 ± 0.00 K/μl
  Lymphocytes: 4.05 ± 0.58 K/μl
  Monocytes: 0.17 ± 0.04 K/μl
  Neutrophills: 0.56 ± 0.42 K/μl
  RBCs: 7.69 ± 0.16 M/μl
  WBCs: 4.80 ± 0.99 K/μl
Organ weight in mice
  Kidney organ weight: 345 ± 1 mg
  Liver organ weight: 1120 ± 21 mg
  Spleen organ weight: 135 ± 7 mg
Serum chemistry in mice
  CK: 183.0 ± 140 U/l
  bilirubin: 0.12 ± 0.00 mg/dL
  cholesterol: 148.5 ± 24.7 mg/dL
  creatine: 0.39 ± 0.21 mg/dL
  globulin: 1.3 ± 0.4 g/dL
  total protein: 4.6 ± 0.7 g/dL
  uric acid: 4.7 ± 0.8 mg/dL
MG-63 cells [5]
  EC50: 50 nM
MG-63 xenografts [6]
  HE-stained tumors: less number of blood vessels
MG-63 xenografts [7]
  tumor volume: allowed the tumor volume to increase slightly from its original size
